Literature values in US20240397917A1, “ANIMAL PRODUCTION METHOD” (DSM IP ASSETS B.V., priority 2021, published 2024).

Experiments:
[1] = per 1% increase in plasma levels of 25-OH-D3; average of broiler trials
[2] = in vivo

C=C1CC[C@H](O)C/C1=C/C=C1\CCC[C@]2(C)[C@@H]([C@H](C)CCCC(C)(C)O)CC[C@@H]12 [HyD, calcidiol]
absorption (at the same level of inclusion in feed): 74.9% | absorption in the intestine in comparison to Vitamin D3 (when fed): more efficient absorption | excretion in comparison to Vitamin D3 (when fed): less excretion | retention in comparison to Vitamin D3 (when fed): greater retention | improvement in ADG [1]: 0.029% | improvement in bone strength [1]: 0.173% | improvement in breast meat yield [1]: 0.008% | improvement in gait score [1]: 0.296% | dose without toxic effects [2]: up to 10 times its recommended dose
